Data on 14 compounds can be found in ChEMBL document CHEMBL1201862, “PubChem BioAssay data set” (2004).

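Values below derive from 48-hour exposures of cells grown in 96-well plates, with endpoints linearly interpolated between the two concentrations bracketing the appropriate inhibition level. Abbreviation: GI50, concentration required for 50% inhibition of growth.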 Calls of active or inactive are those of the source. Rule as the data show it: active = GI50 up to about 1.1 µM and inactive = higher.

Test systems include K562; Malme-3M; HCT-116; SK-MEL-5; SF-539; UACC-62; EKVX; HL-60; KM12; COLO 205; HOP-92; HOP-62; NCI-H23; OVCAR-3; RXF 393.
What all share (test): NCI anticancer screen, dose series, 48 h

Regarding `Cc1cccc(C(C)(C)C)c1NC(=O)C(=O)Cc1nc2ccccc2s1`, the GI50 with K562, in the assay on Malme-3M, with HCT-116, with SK-MEL-5, with SF-539 and in the assay with UACC-62 was > 100 µM (inactive) in each case. Further, the GI50 was 27.4 µM (inactive) with EKVX; > 100 µM (inactive) in the assay on HL-60; > 100 µM (inactive) in the assay with KM12; > 100 µM (inactive) in the assay on COLO 205; > 100 µM (inactive) in the assay with HOP-92; > 100 µM (inactive) in the assay on HOP-62. Moreover, the GI50 with NCI-H23 and in the assay with OVCAR-3 was > 100 µM (inactive) in each case.
As for `S=P(c1ccccc1)(c1ccccc1)C1(C2(P(=S)(c3ccccc3)c3ccccc3)CC2)CC1`, the GI50 in the assay on K562, in the assay on HCT-116, with SK-MEL-5, in the assay on SF-539, with RXF 393 and in the assay with UACC-62 was > 100 µM (inactive) each time. Moreover, the GI50 with EKVX, with KM12, with COLO 205, with HOP-62 and with NCI-H23 was > 100 µM (inactive) each time.
In the case of `CC(C)c1ccc(C2C3=C(N=C4SCC(=O)N42)C(=O)c2ccccc23)cc1` (centres undefined), the GI50 in the assay with K562 was 54 µM (inactive); in the assay on Malme-3M, > 100 µM (inactive); in the assay on HCT-116, 70.6 µM (inactive); in the assay with SK-MEL-5, 52.6 µM (inactive); in the assay with SF-539, > 100 µM (inactive); in the assay on UACC-62 it was 33.7 µM (inactive). Besides, the GI50 in the assay with EKVX was 77.3 µM (inactive); in the assay with HL-60 it was 36 µM (inactive); in the assay on KM12, > 100 µM (inactive); with COLO 205 it was > 100 µM (inactive); with HOP-92, 15.7 µM (inactive); with HOP-62 it was > 100 µM (inactive). For the same compound, the GI50 with NCI-H23 was 75.3 µM (inactive); with OVCAR-3, 60 µM (inactive).
With `CC1OC(n2cc(Cl)c(=O)[nH]c2=O)C=C(OC(=O)c2ccccc2)C1=O` (centres undefined), the GI50 in the assay with K562, with Malme-3M, with SK-MEL-5, in the assay with SF-539, in the assay with RXF 393 and in the assay on UACC-62 was > 100 µM (inactive) in each case. In addition, the GI50 with EKVX, with HL-60, in the assay on COLO 205, with HOP-92, in the assay on HOP-62 and in the assay on NCI-H23 was > 100 µM (inactive) in each case. Moreover, the GI50 in the assay on OVCAR-3 was > 100 µM (inactive).
For `C#CCN(N=O)C(=O)NCCCCC(NC(=O)OCc1ccccc1)C(=O)OCc1ccccc1` (centres undefined), the GI50 in the assay on K562 was 23.3 µM (inactive); in the assay with Malme-3M it was 29.9 µM (inactive); in the assay with HCT-116, 32.7 µM (inactive); in the assay with SK-MEL-5, 62.4 µM (inactive); in the assay with SF-539 it was 16.3 µM (inactive); in the assay with RXF 393, 25.4 µM (inactive). Also, the GI50 in the assay on UACC-62 is 30.6 µM (inactive); in the assay with EKVX, > 100 µM (inactive); in the assay with HL-60, 29.9 µM (inactive); in the assay on KM12 it was > 100 µM (inactive); with HOP-92, 20.3 µM (inactive); with HOP-62, > 100 µM (inactive). In addition, the GI50 with NCI-H23 was 34.6 µM (inactive); in the assay on OVCAR-3 it was 25.5 µM (inactive).
Take `Sc1nnc(/C=C/c2ccc(Cl)c(Cl)c2)[nH]1`: the GI50 is > 100 µM (inactive) in the assay on K562; > 100 µM (inactive) with Malme-3M; > 100 µM (inactive) in the assay with HCT-116; 44.8 µM (inactive) in the assay with SK-MEL-5; > 100 µM (inactive) in the assay on SF-539; > 100 µM (inactive) in the assay on RXF 393. Also, the GI50 in the assay on UACC-62 was > 100 µM (inactive); in the assay with EKVX it was > 100 µM (inactive); in the assay with HL-60, > 100 µM (inactive); in the assay with KM12, > 100 µM (inactive); with COLO 205 it was 0.0202 µM (active); with HOP-62 it was 41.4 µM (inactive). In addition, the figures for the GI50 in the assay on NCI-H23 and with OVCAR-3 were > 100 µM (inactive) and 77.1 µM (inactive), respectively.
With `NNC(=O)/C(=C/c1ccc(Cl)c(Cl)c1)NC(=O)c1ccccc1`, the GI50 in the assay on Malme-3M, in the assay with HCT-116, in the assay on SK-MEL-5, in the assay with RXF 393, in the assay with UACC-62 and in the assay with EKVX was > 100 µM (inactive) each time. The GI50 in the assay on HL-60 is > 100 µM (inactive); in the assay with KM12, > 100 µM (inactive); in the assay on COLO 205, > 100 µM (inactive); in the assay on HOP-92, 40.5 µM (inactive); in the assay on HOP-62 it was > 100 µM (inactive); in the assay on NCI-H23, > 100 µM (inactive). In addition, the GI50 with OVCAR-3 was > 100 µM (inactive).
For the compound `O=C(CSc1nc(-c2ccccc2)c(-c2ccccc2)[nH]1)N/N=C/c1ccc(O)cc1`, the GI50 was 23.6 µM (inactive) with K562; 21.4 µM (inactive) with Malme-3M; 22.5 µM (inactive) in the assay with HCT-116; 19.1 µM (inactive) with SF-539; 24.2 µM (inactive) in the assay with RXF 393; 22.1 µM (inactive) with UACC-62. Also, the GI50 in the assay on EKVX was 30.1 µM (inactive); with HL-60 it was 20 µM (inactive); with KM12, 22.6 µM (inactive); with COLO 205, 19.5 µM (inactive); in the assay with HOP-92, 22.8 µM (inactive); in the assay on HOP-62 it was 19.3 µM (inactive). For the same compound, the GI50 with NCI-H23 is 3.76 µM (inactive); with OVCAR-3 it was 18.2 µM (inactive).
For `Cc1cc(NS(=O)(=O)c2ccc(NC(=O)c3cccc4c(N)c5ccccc5nc34)cc2)no1`, the GI50 is 31.2 µM (inactive) in the assay on K562; 30.9 µM (inactive) with Malme-3M; 14.5 µM (inactive) with HCT-116; > 10 µM (inactive) with SK-MEL-5; 21.1 µM (inactive) in the assay on SF-539; 16.3 µM (inactive) in the assay with RXF 393. Besides, the GI50 in the assay with UACC-62 was 28 µM (inactive); in the assay with EKVX, 90.8 µM (inactive); in the assay on KM12 it was 18.9 µM (inactive); in the assay with COLO 205 it was 22.6 µM (inactive); in the assay on HOP-62 it was 29.6 µM (inactive); in the assay on NCI-H23 it was 21.8 µM (inactive). In the assay on OVCAR-3, the GI50 is 21.7 µM (inactive).
With `COC(=O)c1cccc2cccc(C(=O)Nc3ccc(Cl)cc3)c12`, the GI50 was 0.142 µM (active) with K562; > 100 µM (inactive) in the assay on Malme-3M; > 35.1 µM (inactive) in the assay with HCT-116; 0.336 µM (active) in the assay with SK-MEL-5; 21.3 µM (inactive) in the assay with SF-539; > 100 µM (inactive) with RXF 393. Moreover, the GI50 in the assay on UACC-62 is 0.153 µM (active); in the assay on EKVX, 23.2 µM (inactive); in the assay with HL-60 it was 0.706 µM (active); with KM12, > 40.9 µM (inactive); in the assay with COLO 205 it was 0.977 µM (active); with HOP-92, > 69.7 µM (inactive). The figures for the GI50 in the assay with NCI-H23 and in the assay with OVCAR-3 were 12.7 µM (inactive) and 29.2 µM (inactive), respectively.
Turning to `COC(=O)/C1=C/C2CC(/C=C(/c3ccccc3)C(=O)O1)C2`, the GI50 is 27.8 µM (inactive) with K562; 12.1 µM (inactive) in the assay with Malme-3M; 21.8 µM (inactive) with HCT-116; 17.7 µM (inactive) with SK-MEL-5; 33.3 µM (inactive) with SF-539; 25.1 µM (inactive) in the assay with RXF 393. Besides, the GI50 is 14.7 µM (inactive) with UACC-62; 40.3 µM (inactive) in the assay with EKVX; 22.5 µM (inactive) with HL-60; 23.8 µM (inactive) with KM12; 19.1 µM (inactive) in the assay with COLO 205; 44.2 µM (inactive) with HOP-62. For the same compound, the GI50 in the assay with NCI-H23 is 17 µM (inactive); in the assay with OVCAR-3, 33.2 µM (inactive).
Turning to `Cc1cc(NS(=O)(=O)c2ccc(Nc3c4ccccc4nc4c(C(=O)Nc5ccc(S(N)(=O)=O)cc5)cccc34)cc2)no1`, the GI50 in the assay on K562 is 44.3 µM (inactive); with Malme-3M, 17.9 µM (inactive); with HCT-116, 31.2 µM (inactive); in the assay on SK-MEL-5, 63.1 µM (inactive); with SF-539, 21.3 µM (inactive); in the assay with RXF 393, 90.6 µM (inactive). Besides, the GI50 in the assay on UACC-62 is 24.8 µM (inactive); with EKVX, > 100 µM (inactive); in the assay with KM12, 20.6 µM (inactive); in the assay with COLO 205, 34.8 µM (inactive); in the assay on HOP-92, 33 µM (inactive); in the assay on HOP-62, 35.4 µM (inactive). Besides, the GI50 with NCI-H23 was 47.5 µM (inactive); with OVCAR-3 it was 16 µM (inactive).
On to `C[N+](C)(C)CC1CCCC/C1=N\OC(=O)c1ccccc1` (centres undefined), for which the GI50 with K562, with Malme-3M, with HCT-116, in the assay on SK-MEL-5, in the assay on SF-539 and with RXF 393 was > 100 µM (inactive) throughout. The GI50 in the assay with UACC-62, in the assay with EKVX, in the assay on KM12, with COLO 205, with HOP-92 and in the assay on HOP-62 was > 100 µM (inactive) throughout. Moreover, the GI50 with NCI-H23 and with OVCAR-3 was > 100 µM (inactive) in each case.
Take `NS(=O)(=O)c1cc2c(cc1Cl)NC(/C(=N/NC(=O)c1ccncc1)C1C(=O)NC(=O)NC1=O)=NS2(=O)=O`: the GI50 with K562 was > 100 µM (inactive); with Malme-3M it was > 100 µM (inactive); with HCT-116 it was 55.8 µM (inactive); in the assay on SK-MEL-5, > 100 µM (inactive); in the assay with SF-539 it was > 100 µM (inactive); in the assay on UACC-62, > 100 µM (inactive). For the same compound, the GI50 in the assay on EKVX, in the assay with HL-60, in the assay on KM12, with COLO 205, in the assay on HOP-92 and in the assay with HOP-62 was > 100 µM (inactive) each time. Besides, the GI50 in the assay on OVCAR-3 was > 100 µM (inactive).
